# pEC50: −log10 of the molar value.
# Experiments:
# T-47D [1] = test: Caspase cascade activation assay (N-(Ac-DEVD)-N'-ethoxycarbonyl-R110 fluorogenic substrate) in solid tumor cells; format: cell-based, Human; details: T-47D cells, 48 h incubation; for pEC50: Homo sapiens, T47D, sigmoidal dose-response, read-out: Caspase potency EC50; for Caspase activity (Ratio): ratio of net RFU of test compound to that of control samples
# Description: Human breast cancer cell lines T-47D and ZR-75-1 were grown according to media component mixtures designated by American Type Culture Collection+10% FCS (Invitrogen Corporation), in a 5% CO2-95% humidity incubator at 37° C. T-47D and ZR-75-1 cells were maintained at a cell density between 50 and 80% confluency at a cell density of 0.1 to 0.6×10^6 cells/mL. Cells were harvested at 600×g and resuspended at 0.65×10^6 cells/mL into appropriate media+10% FCS. An aliquot of 45 μl of cells was added to a well of a 96-well microtiter plate containing 2.5 μl of a 10% DMSO in RPMI-1640 media solution containing 0.16 to 100 μM of 3-(3-amino-4-chloro-phenyl)-5-(3-chlorothiophen-2-yl)-[1,2,4]-oxadiazole or other test compound (0.016 to 10 μM final). An aliquot of 22.5 μL of cells was added to a well of a 384-well microtiter plate containing 2.5 μl of a 10% DMSO in RPMI-1640 media solution without test compound as the control sample. The samples were mixed by agitation and then incubated at 37° C. for 48 h in a 5% CO2-95% humidity incubator. After incubation, the samples were removed from the incubator and 25 μL of a solution containing 14 μM of N-(Ac-DEVD)-N′-ethoxycarbonyl-R110 (SEQ ID No.:1) fluorogenic substrate (Maxim, Inc.; WO99/18856), 20% sucrose (Sigma), 20 mM DTT (Sigma), 200 mM NaCl (Sigma), 40 mM Na PIPES buffer pH 7.2 (Sigma), and 500 μg/mL lysolecithin (Calbiochem) was added. The samples were mixed by agitation and incubated at room temperature. Using a fluorescent plate reader (Model SpectraMax Gemini, Molecular Devices), an initial reading (T=0) was made approximately 1–2 min after addition of the substrate solution, employing excitation at 485 nm and emission at 530 nm, to determine the background fluorescence of the control sample. After the 3 h incubation, the samples were read for fluorescence as above (T=3 h).
# The Relative Fluorescence Unit values (RFU) were used to calculate the sample readings as follows: RFU(T=3h)−Control RFU(T=0)=Net RFU(T=3h)
# The activity of caspase cascade activation was determined by the ratio of the net RFU value for 3-(3-amino-4-chloro-phenyl)-5-(3-chlorothiophen-2-yl)-[1,2,4]-oxadiazole or other test compound to that of control samples. The EC50 (nM) was determined by a sigmoidal dose-response calculation (Prism 2.0, GraphPad Software Inc.).
# T-47D [2] = test: Inhibition of cell proliferation (GI50), CellTiter 96 AQueous One Solution; format: cell-based; details: Homo sapiens, T47D; T-47D cells, 48 h incubation; dose for 50% inhibition of cell proliferation
# Description: T-47D and SKBr-3 cells were grown and harvested as in Example 72. An aliquot of 90 μL of cells (2.2×10^4 cells/mL) was added to a well of a 96-well microtiter plate containing 10 μl of a 10% DMSO in RPMI-1640 media solution containing 1 nM to […] of 3-(3-amino-4-chloro-phenyl)-5-(3-chlorothiophen-2-yl)-[1,2,4]-oxadiazole (0.1 nM to 10 μM final). An aliquot of 90 μL of cells was added to a well of a 96-well microtiter plate containing 10 μL of a 10% DMSO in RPMI-1640 media solution without compound as the control sample for maximal cell proliferation (AMax). The samples were mixed by agitation and then incubated at 37° C. for 48 h in a 5% CO2-95% humidity incubator. After incubation, the samples were removed from the incubator and 20 μL of CellTiter 96 AQUEOUS One Solution Cell Proliferation™ reagent (Promega) was added. The samples were mixed by agitation and incubated at 37° C. for 2–4 h in a 5% CO2-95% humidity incubator. Using an absorbance plate reader (Model 1420 Wallac Instruments), an initial reading (T=0) was made approximately 1–2 min after addition of the solution, employing absorbance at 490 nm. This determines the possible background absorbance of the test compounds. No absorbance for 3-(3-amino-4-chloro-phenyl)-5-(3-chlorothiophen-2-yl)-[1,2,4]-oxadiazole was found at 490 nm. After the 2–4 h incubation, the samples were read for absorbance as above (ATest).
# Baseline for GI50 (dose for 50% inhibition of cell proliferation) of initial cell numbers were determined by adding an aliquot of 90 μL of cells or 90 μL of media, respectively, to wells of a 96-well microtiter plate containing 10 μL of a 10% DMSO in RPMI-1640 media solution. The samples were mixed by agitation and then incubated at 37° C. for 0.5 h in a 5% CO2-95% humidity incubator. After incubation, the samples were removed from the incubator and 20 μL of CellTiter 96 AQUEOUS One Solution Cell Proliferation™ reagent (Promega) was added. The samples were mixed by agitation and incubated at 37° C. for 2–4 h in a 5% CO2-95% humidity incubator. Absorbance was read as above, (AStart) defining absorbance for initial cell number used as baseline in GI50 determinations.
# Calculation: GI50 (dose for 50% inhibition of cell proliferation) is the concentration where [(ATest−AStart)/(AMax−Astart)]=0.5.
# MX1 = test: as above; format: cell-based; details: Homo sapiens; MX1 cells, 48 h incubation; dose for 50% inhibition of cell proliferation
SMILES,pEC50 (T-47D [1]),Caspase activity (Ratio) (T-47D [1]),GI50 (T-47D [2]) [nM],GI50 (MX1) [nM]
"Nc1cc(-c2noc(-c3sccc3Cl)n2)ccc1Cl [Example 1, 3-(3-Amino-4-chloro-phenyl)-5-(3-chlorothiophen-2-yl)-[1,2,4]-oxadiazole]",5.70,11.9,894,7000
"CN(C)c1cc(-c2noc(-c3sccc3Cl)n2)ccc1Cl [Example 2, 5-(3-Chlorothiophen-2-yl)-3-(3-dimethylamino-4-chloro-phenyl)-[1,2,4]-oxadiazole]",5.82,15.1,360,5000
"CN(C)c1cc(-c2noc(-c3occc3Br)n2)ccc1Cl [Example 4, 5-(3-Bromofuran-2-yl)-3-(3-dimethylamino-4-chloro-phenyl)-[1,2,4]-oxadiazole]",5.73,11.9,415,210
"N#Cc1cc(-c2noc(-c3sccc3Cl)n2)ccc1Cl [Example 7, 5-(3-Chlorothiophen-2-yl)-3-(4-chloro-3-cyano-phenyl)-[1,2,4]-oxadiazole]",5.40,3.4,,
"Fc1cc(-c2noc(-c3sccc3Cl)n2)ccc1Cl [Example 9, 5-(3-Chlorothiophen-2-yl)-3-(4-chloro-3-fluoro-phenyl)-[1,2,4]-oxadiazole]",5.49,9.0,514,899
"O=[N+]([O-])c1cc(-c2noc(-c3sccc3Cl)n2)ccc1Cl [Example 10, 5-(3-Chlorothiophen-2-yl)-3-(4-chloro-3-nitro-phenyl)-[1,2,4]-oxadiazole]",5.43,9.9,,
"Clc1ccc(C=Cc2noc(-c3sccc3Cl)n2)cc1 [Example 13, 3-[2-(4-Chloro-phenyl)-vinyl]-5-(3-chlorothiophen-2-yl)-[1,2,4]-oxadiazole]",5.26,4.4,,
"Clc1ccsc1-c1nc(N2CCCCC2)no1 [Example 18, 5-(3-Chlorothiophen-2-yl)-3-(1-piperidinyl)-[1,2,4]-oxadiazole]",5.30,2.8,,
"CC1CCN(c2noc(-c3sccc3Cl)n2)CC1 [Example 22, 5-(3-Chlorothiophen-2-yl)-3-(4-methylpiperidin-1-yl)-[1,2,4]oxadiazole]",5.48,5.4,,
"Cc1cc(Cl)ccc1-c1noc(-c2sccc2Cl)n1 [Example 43, 3-(4-Chloro-2-methyl-phenyl)-5-(3-chlorothiophen-2-yl)-[1,2,4]oxadiazole]",6.09,7.9,,
"Cc1cccnc1-c1noc(-c2sccc2Cl)n1 [Example 47, 5-(3-Chlorothiophen-2-yl)-3-(3-methyl-pyridin-2-yl)-[1,2,4]oxadiazole]",5.61,4.5,,
"Cc1cc(Cl)ccc1-c1noc(-c2occc2Br)n1 [Example 49, 5-(3-Bromofuran-2-yl)-3-(4-chloro-2-methyl-phenyl)-[1,2,4]oxadiazole]",6.00,11.9,,
"Cc1cc(Cl)cnc1-c1noc(-c2occc2Br)n1 [Example 50, 5-(3-Bromofuran-2-yl)-3-(5-chloro-3-methyl-pyridin-2-yl)-[1,2,4]oxadiazole]",6.10,5.9,,
"Cc1cccnc1-c1noc(-c2occc2Br)n1 [Example 57, 5-(3-Bromofuran-2-yl)-3-(3-methyl-pyridin-2-yl)-[1,2,4]oxadiazole]",6.07,6.4,,
